Source: patent publication US7098245B2, “Polynucleotide cleavage agent switched on by photo irradiation” (Tottori University, priority 2002, dated 2006)

Experiments:
[1] = system: DNA; details: background, symposium report 2001; cited from earlier work
[2] = system: supercoiled φX174 DNA; experiment: DNA cleavage test using (R,R)- and (S,S)-11 (Xe lamp, 45 min); type: biochemical
Procedure: The reaction was carried out in a solvent of 20 mM sodium phosphate of pH 7.0 and 20% DMSO. Samples were irradiated for 45 min at a distance of 6 cm using Xe lamp using polystylene filter. Electrophoresis (0.8% agarose gel, TAE buffer, 100 V, 40 min). Gel was stained by EtBr and visualized by UV-B lamp (transillumnator).

[3] = system: supercoiled φX-174 DNA; experiment: DNA cleavage test under photo-irradiation (Xe lamp with polystylene filter, 2 hrs); type: biochemical
Procedure: (§1) DNA cleavage test using (S,S)—NH2-mono under photo-irradiation φX174 RFI DNA (New England BioLabs, N3021S, 150 ┌M) (1 ┌L) was dissolved in a 10 mM sodium phosphate buffer pH 7.0 (9 ┌L) in a micro tube.
(§2) Ethyl 9-anthracene carboxylate (anth-OEt) was used as a control compound. Three samples were prepared: a buffer solution of DNA, a mixture of anth-OEt with a buffer solution of DNA, and a mixture of (S,S)—NH2-mono with a buffer solution of DNA. These samples were placed under a UV-A lamp (max=365 nm, trans illuminator) at a distance of 4 cm, and irradiated for 3 h. The resulting mixture was subjected to an electrophoresis experiment ([…], TAE buffer, 100 V, 30 min). The resulting agarose gel was stained with ethidium bromide (EtBr), visualized by UV-B lamp and the DNA cleavage ratio was determined by NIH Image 1.62.
The test was carried out using (R,R)— and (S,S)—NH2-mono in the same manner as described in Example 2 except that the test samples were placed under a Xe lamp with a polystylene filter at a distance of 3 cm and irradiated for 2 hrs.

[4] = Stability of the compound (sunlight in solution; after deprotection); type: physicochemical
Procedure: Part G. A solution of ester 5 (14.6 mg, 0.0307 mmol) in methanol (0.3 mL) was stirred at rt in the presence of Pd/C (3.0 mg, 20 wt %) under H2 (1 atm) for 15 h in the dark. The crude products were filtered through a sintered glass filter with a Celite pad, and the filtrate was dried under vacuo to afford the title compound (S,S)—NH2-mono(9.2 mg, 0.027 mmol) in 88% yield. This compound was unstable when dissolved in methanol or CHCl3 under the irradiation of sunlight; therefore, it should be kept under an argon atmosphere in a dark place.
The reaction was carried out in a flask that was covered by aluminum foil to keep out light. A solution of (R,R)-10 (18 mg, 0.038 mmol) in methanol (1.0 mL) was stirred at rt in the presence of Pd/C (5.4 mg, 30 wt %) under H2 (1 atom) for 5 days and filtered though a glass sintered glass filter with a Celite pad. The filtrate was evaporated under reduced pressure to give (R,R)—NH2-mono (9.9 mg, […]). This compound was unstable when dissolved in methanol or CHCl3 under the irradiation of sunlight; therefore, it should be kept under an argon atmosphere in a dark place.

[5] = system: φX174 RFI DNA; experiment: DNA cleavage test under photo-irradiation (UV-A lamp 365 nm, 3 h), agarose gel electrophoresis; type: biochemical; details: 4 cm, 10 mM sodium phosphate pH 7.0, samples 1, 5, 12 mM, 1 ┌L
Procedure: as §1, §2
The increased ratio of nicked DNA means that DNA was cleaved by the experimental conditions.

[6] = Xe lamp, polystylene filter, 3 cm, 2 hrs

SMILES	concentration required to convert supercoiled DNA to the nicked type DNA [3, 6]	stability after deprotection of the amino protecting group [4]	stability when dissolved in methanol or CHCl3 under irradiation of sunlight [4]	DNA cleavage activity [5]	further results
O=C(OCC1C(COC(=O)c2c3ccccc3cc3ccccc23)C1(F)F)c1c2ccccc2cc2ccccc12 (stereo not drawn) [9-anthracene carboxylic diester of 1,3-bishydroxymethyl-2,2-difluoro-cyclopropane]					DNA cleavage activity [1]: no significant DNA cleavage activity
O=C(NC[C@H]1[C@H](CO)C1(F)F)c1c2ccccc2cc2ccccc12 [(R,R)-11, (R,R)-2,2-difluoro-3-hydroxymethyl-cyclopropylmethyl anthracene-9-carboxamide]					equivalent versus the DNA base pair at that concentration ([2]; 20 mM sodium phosphate pH 7.0, 20% DMSO): 1.3 equivalent; concentration at which supercoiled DNA was converted to the nicked form ([2]; 20 mM sodium phosphate pH 7.0, 20% DMSO, 6 cm): 100 µM; DNA cleavage activity (qualitative) ([2]; FIG. 5): strong DNA cleavage activity
NC[C@H]1[C@H](COC(=O)c2c3ccccc3cc3ccccc23)C1(F)F [(R,R)—NH2-mono, (R,R)-3-aminomethyl-2,2-difluoro-cyclopropylmethyl anthracene-9-carboxylate]	85.5 µM	unstable	unstable		DNA cleavage strength relative to the (S,S)-isomer ([3]; Xe lamp, 2 hrs): more than 10 times; equivalent versus supercoiled φX-174 DNA at the required concentration [3, 6]: 0.667 equivalent; activity relative to the corresponding (S,S)-isomer (description) ([3]; stated in detailed description): five times stronger activity
NC[C@@H]1[C@@H](COC(=O)c2c3ccccc3cc3ccccc23)C1(F)F [(S,S)—NH2-mono, (S,S)-3-aminomethyl-2,2-difluoro-cyclopropylmethyl anthracene-9-carboxylate]	1200 µM	unstable	unstable	weak DNA cleavage agent	
CCOC(=O)c1c2ccccc2cc2ccccc12 [anth-OEt, Ethyl 9-anthracene carboxylate, reference compound]				no significant activity	
